Source: patent publication US8496927B2, “CD20 negatively converted B-cell malignant lymphoma cell line and utilization thereof” (National University Corporation Nagoya University, priority 2006, dated 2013)

Experiments:
CD20 mRNA = CD20 mRNA expression in RRBL1 cells by RT-PCR; type: cell-based, human; conditions: for induction of CD20 mRNA: added to RRBL1, analyzed with elapse of time (summary)
Procedure: (§1) 5-aza-2′-deoxycytidine (SIGMA, hereinafter abbreviated as “Aza”) was injected to a culture solution of RRBL1 cells, and the cells were washed after 24 hours. After culturing for further 2 days, RNA and the whole-cell lysate was extracted from the cells, and subjected to analyses by RT-PCR and western blotting. As a result, CD20 mRNA expression increased after the Aza treatment (FIG. 7A, RT, lane 2). In the western blotting analysis, the CD20 protein expression was observed after the Aza treatment (FIG. 7A, IB lane 2).
(§2) Subsequently, changes with time regarding CD20 mRNA expression and CD20 protein expression were examined (FIG. 7B) Aza was injected to a culture solution on day 0, and cultured at 37° C. for 24 hours (day 1). Then, the cells were washed and further cultured for 1 to 6 days (day 2 to day 7). RNA and protein were extracted from the cells after culturing, and subjected to analyses by western blotting (using anti-CD20 antibody, anti-IRF4 antibody, anti-PU.1 antibody, anti-DNMT1 antibody, and […]) and RT-PCR.

CD20 protein = CD20 protein expression in RRBL1 cells by western blotting; type: cell-based, human; conditions: for induction of CD20 protein: added to RRBL1, analyzed with elapse of time (summary)
Procedure: as §1, §2
Aza and TSA (Trichostatin: histone deacetylase inhibitor) were injected singly or in combination to a culture supernatant of RRBL1 cells. The cells were washed after one day from Aza injection. After further cultured for 2 days, protein was extracted from the cells. In the TSA injected group, protein was extracted from the cells at the point of 24 hours from TSA injection. For the group injected in combination use, Aza was first injected and cultured for 1 day. The cells after washed were cultured for 1 day, then TSA was injected thereto, and further, the cells were dissolved after the elapse of one day to extract protein. Thus obtained each sample was subjected to SDS-PAGE, and western blotting using an anti-CD20 antibody and an anti-GAPDH antibody was then performed.

[1] = system: DNMT1 (DNA methyltransferase 1); assay: DNMT1 expression in RRBL1 cells by western blotting; type: cell-based, human; conditions: day 1 after Aza injection
Procedure: as §2
(§3) IRF4 and Pu.1 are transcriptional factors that have been reported to bind to a CD20 gene promoter. […] DNMT1 (DNA methyltransferase 1) has reported to be decomposed by Aza.

IRF4 and Pu.1 = IRF4 and Pu.1 expression in RRBL1 cells by western blotting; type: cell-based, human; conditions: time course after Aza injection
Procedure: as §2, §3

Raji cells = assay: Rituximab resistance test: number of living cells after culture with rituximab; type: cell-based; conditions: rituximab 500 mg/ml, 10% FCS, 37° C. for 2 days
Procedure: (§4) Rituximab ([…]) was added to a PRMI1640 culture solution containing 10% FCS and the solution was cultured at 37° C. for 2 days, and the number of living cells was measured. Further, Raji cells were cultured under the same conditions (control group). […] Thus, it was confirmed that the RRBL1 cells indicates rituximab resistance in vitro.

RRBL1 cells [2] = assay: as above; type: cell-based, human; conditions: rituximab 500 mg/ml, 10% FCS, 37° C. for 2 days
Procedure: as §4

RRBL1 cells [3] = assay: Number of living RRBL1 cells treated with Aza and TSA, cultured with or without rituximab; type: cell-based, human; conditions: cultured for 2 days
From the text: RRBL1 cells (untreated group) and RRBL1 cells treated with Aza and TSA (treated group) were respectively cultured for 2 days in the absence of rituximab (●, ▪) or in the presence of rituximab (♦, ▴), and the number of living cells were compared (FIG. 8C).

[4] = system: CD20 positive malignant lymphoma; assay: Use experience of rituximab-containing chemotherapy, Hospital of Nagoya University; type: in vivo, human
Procedure: Cases of CD20 positive malignant lymphoma in which rituximab-containing chemotherapy was carried out in the Hospital of Nagoya University, School of Medicine are shown. The rituximab-containing chemotherapies were performed in 124 cases in about 5 years from […] to 2006, and in 36 cases (29%) among 124 cases, recurrence or relapse were observed. In 19 cases, about half of these cases, tissue biopsies were carried out again, and in 5 cases (26.3% among the cases subjected to rebiopsy), negative conversion of CD20 expression was confirmed. Prognoses of the cases where CD20 was negatively converted were extremely bad, and patients in all the cases died within 1 year after the confirmation of negative conversion.
In about 5 years from September 2001, CD20 positive malignant lymphoma cases subjected to chemotherapy including rituximab in this facility was 124 cases (FIG. 13), and 36 cases (29.0%) in the 124 cases were recurred or relapsed.

CD20 positive lymphoma = conditions: Non-patent document 10; cited from earlier work
[5] = RRBL1 cells, Aza on day 0, washed day 1, cultured to day 7
[6] = RRBL1 cells, washed after 24 hours, cultured further 2 days

Row | Compound | CD20 mRNA expression, change with time (CD20 mRNA; [5]) | CD20 mRNA expression (RT-PCR) (CD20 mRNA; [6]) | induction of CD20 mRNA (CD20 mRNA) | culturing time by which CD20 expression is induced (CD20 protein; RRBL1) | CD20 protein expression, change with time (CD20 protein; [5]) | day on which CD20 protein expression level reached peak (CD20 protein; [5]) | CD20 protein expression (western blotting) (CD20 protein; [6]) | induction of CD20 protein (CD20 protein) | DNMT1 expression [1] | IRF4 and Pu.1 expression (IRF4 and Pu.1) | proliferation (number of living cells) (Raji cells) | proliferation (number of living cells) (RRBL1 cells [2]) | proliferation (number of living cells) in the presence of rituximab (RRBL1 cells [3]) | cases with negative conversion (disappearance or decrease) of CD20 expression ([4]; 5 of 19 recurred/relapsed cases subjected to rebiopsy, FCM and immunostaining) | cases recurred or relapsed ([4]; 36 of 124 cases given rituximab-containing chemotherapy, about 5 years from 2001) | patients showing rituximab resistance (CD20 positive lymphoma)
1 | Nc1ncn([C@H]2C[C@H](O)[C@@H](CO)O2)c(=O)n1 [Aza, 5-aza-2′-deoxycytidine] | the same tendency as the CD20 protein expression | increased | possible | 1 to 7 days | increased from day 1 | 3 days | observed | possible | significant decrease | tendency of temporal increase |  |  |  |  |  | 
2 | CC(/C=C/C(=O)NO)=C\[C@@H](C)C(=O)c1ccc(N(C)C)cc1 [TSA, Trichostatin A] |  |  | possible |  |  |  |  | possible |  |  |  |  |  |  |  | 
3 | rituximab |  |  |  |  |  |  |  |  |  |  | significantly repressed | repression of proliferation was not observed | significantly inhibited | 26.3% | 29% | 5 out of 48
